Measurements: patent US20140135359A1, “METHODS OF DESIGNING, PREPARING, AND USING NOVEL PROTONOPHORES” (priority 2012, published 2014)
Entries after “also recorded” stand apart in the source; their conditions may differ. Where two headings read alike, the source gives them in different places.

Tests used:
[1] = tested on: isolated rat liver mitochondria; assay: Residual functional capacity / inhibitory effect on ADP-stimulated (state 3) oxygen consumption; format: biochemical; conditions: for inhibition of ADP-stimulated oxygen consumption: screening at 100 μM
[2] = tested on: isolated rat liver mitochondria; assay: Uncoupling activity: increase in basal (state 4) oxygen consumption by oxygraphy; format: biochemical; conditions: for Measured Uncoupling (% uncoupling ± SEM @ 100 μM): Table 1A, relative to ADP-stimulated respiration = 100%; for slope of the linear portion of the concentration-to-activity relationship: logarithmic scales
[3] = test conc. 25 μM, functional capacity (state 3 minus state 4 rate) as % of vehicle-treated mitochondria
[4] = test conc. 100 μM, functional capacity (state 3 minus state 4 rate) as % of vehicle-treated mitochondria
[5] = Suppl. Table 1, 100 μM, 2-3 mitochondrial preparations
[6] = test conc. 25 μM, increase in basal (state 4) oxygen consumption as % of average ADP-stimulated (state 3) rate in vehicle-treated mitochondria
[7] = test conc. 100 μM, increase in basal (state 4) oxygen consumption as % of average ADP-stimulated (state 3) rate in vehicle-treated mitochondria

SMILES	Inhibitory effect (%) ([1]; test conc. 25 μM)	Residual capacity (%) [1, 3]	Inhibitory effect (%) ([1]; test conc. 100 μM)	Residual capacity (%) [1, 4]	Measured Uncoupling Activity (% uncoupling ± SEM @ 100 μM) [2, 5]	Uncoupling (%) [2, 6]	Uncoupling (%) [2, 7]	also measured
COc1ccc(C2CC(=O)c3c(O)cc(O)cc3O2)cc1O (racemic) [(±) hesperetin, hesperetin]	8%	91 ± 8%	14%	81 ± 2%	5 ± 1 % uncoupling	1 ± 1%	5 ± 1%	–
O=C1C[C@@H](c2ccc(O)cc2)Oc2cc(O)cc(O)c21 (racemic) [(±) naringenin, naringenin]	–	–	31%	65 ± 7%	4 ± 2 % uncoupling	–	4 ± 2%	–
Oc1cc(O)c2c(c1)OC(c1ccc(O)c(O)c1)C(O)C2 (single isomer, unassigned; (+)) [(+) catechin, catechin]	–	–	2%	98 ± 5%	−2 ± 0 % uncoupling	–	−2 ± 0%	–
CC(=O)c1ccc(O)cc1 [4-acetylphenol]	–	–	13%	87 ± 1%	0 ± 0 % uncoupling	–	0 ± 0%	uncoupling activity ([2]; 100 μM, result in words): lack of activity
O=C(/C=C/c1ccccc1)c1ccc(O)cc1 [4′-hydroxychalcone]	7%	80 ± 2%	0%	26 ± 19%	74 ± 14 % uncoupling	13 ± 2%	74 ± 14%	Measured Uncoupling (% uncoupling ± SEM @ 100 μM) ([2]; 100 μM): 74 ± 14 % uncoupling
O=c1ccoc2cc(O)ccc12 [7-hydroxychromone]	–	–	14%	86 ± 2%	0 ± 0 % uncoupling	–	0 ± 0%	uncoupling activity ([2]; 100 μM, result in words): no appreciable activity; also recorded: lack of activity
O=C1c2ccccc2C(=O)c2ccccc21 [anthraquinone]	–	–	15%	85 ± 21%	−1 ± 1 % uncoupling	–	−1 ± 1%	uncoupling activity ([2]; 100 μM, result in words): inactive
O=c1cc(-c2ccc(O)cc2)oc2cc(O)cc(O)c12 [apigenin]	28%	63 ± 9%	44%	37 ± 8%	19 ± 3 % uncoupling	9 ± 1%	19 ± 3%	–
O=C(O)c1ccccc1 [benzoic acid]	–	–	–	–	–	–	–	Inhibitory effect (%) [1]: 4%; Residual capacity (%) [1]: 96 ± 3%; Measured Uncoupling Activity (% uncoupling ± SEM @ 100 μM) [2]: 0 ± 1 % uncoupling; Uncoupling (%) [2]: 0 ± 1%
COc1ccc(-c2coc3cc(O)cc(O)c3c2=O)cc1 [biochanin A]	0%	27 ± 27%	0%	0 ± 0%	103 ± 22 % uncoupling	75 ± 36%	103 ± 22%	uncoupling activity ([2]; 100 μM, result in words): complete uncoupling; Measured Uncoupling (% uncoupling ± SEM @ 100 μM) ([2]; 100 μM): >100 % uncoupling
O=C(/C=C/c1ccc(O)c(O)c1)OCCc1ccccc1 [caffeic acid phenethyl ester]	5%	39 ± 12%	43%	0 ± 0%	–	56 ± 13%	57 ± 35%	–
O=C(O)/C=C/c1ccc(O)c(O)c1 [caffeic acid]	–	–	21%	79 ± 9%	0 ± 1 % uncoupling	–	0 ± 1%	–
Cc1ccc(C(C)C)cc1O [carvacrol]	–	–	10%	83 ± 2%	7 ± 2 % uncoupling	–	7 ± 2%	–
Oc1ccccc1O [catechol]	–	–	12%	88 ± 1%	0 ± 0 % uncoupling	–	0 ± 0%	–
O=c1cc(-c2ccc(O)cc2)oc2c(-c3c(O)cc(O)c4c(=O)cc(-c5ccc(O)cc5)oc34)c(O)cc(O)c12 [cupressuflavone]	–	–	5%	95 ± 4%	−2 ± 0 % uncoupling	–	−2 ± 0%	–
O=c1c(-c2ccc(O)cc2)coc2cc(O)ccc12 [daidzein]	19%	78 ± 5%	26%	68 ± 4%	6 ± 1 % uncoupling	3 ± 1%	6 ± 1%	–
O=c1c(O)c(-c2ccccc2O)oc2cc(O)cc(O)c12 [datiscetin]	33%	52 ± 9%	67%	0 ± 0%	33 ± 3 % uncoupling	15 ± 2%	33 ± 3%	inhibition of ADP-stimulated oxygen consumption [1]: inhibitory activity; uncoupling potency compared with 2,4-dinitrophenol ([2]; dose-escalation): potency on the order of that of 2,4-dinitrophenol; slope of the linear portion of the concentration-to-activity relationship ([2]; dose-escalation): 0.44
O=C(O[C@@H]1Cc2c(O)cc(O)cc2O[C@@H]1c1cc(O)c(O)c(O)c1)c1cc(O)c(O)c(O)c1 [epigallocatechin gallate]	–	–	–	–	–	–	–	uncoupling activity ([2]; 100 μM, result in words): devoid of activity
COc1cc(/C=C/C(=O)O)ccc1O [ferulic acid]	–	–	9%	91 ± 9%	−1 ± 1 % uncoupling	–	−1 ± 1%	–
O=c1cc(-c2ccccc2)oc2ccccc12 [flavone]	–	–	25%	75 ± 13%	−1 ± 2 % uncoupling	–	−1 ± 2%	uncoupling activity ([2]; 100 μM, result in words): inactive
Cc1cc(O)c2c(c1)C(=O)c1cc(O)cc(O)c1C2=O [frangulic acid]	41%	0 ± 0%	22%	0 ± 0%	78 ± 14 % uncoupling	59 ± 16%	78 ± 14%	Measured Uncoupling (% uncoupling ± SEM @ 100 μM) ([2]; 100 μM): 78 ± 14 % uncoupling; uncoupling potency compared with 2,4-dinitrophenol ([2]; dose-escalation): potency on the order of that of 2,4-dinitrophenol; maximal inducible uncoupling ([2]; dose-escalation, 100 μM or below): complete uncoupling
O=c1c(O)c(-c2ccccc2)oc2cc(O)cc(O)c12 [galangin]	0%	2 ± 2%	5%	0 ± 0%	95 ± 9 % uncoupling	102 ± 3%	95 ± 9%	uncoupling activity ([2]; 25 μM): complete uncoupling; Measured Uncoupling (% uncoupling ± SEM @ 100 μM) ([2]; 100 μM): 95 ± 9 % uncoupling; uncoupling potency compared with 2,4-dinitrophenol ([2]; dose-escalation): potency on the order of that of 2,4-dinitrophenol; slope of the linear portion of the concentration-to-activity relationship ([2]; dose-escalation): 1.39
CC(=O)c1ccc(O)cc1 [para-acetylphenol]	–	–	–	–	–	–	–	uncoupling activity ([2]; 100 μM, result in words): no appreciable activity
Oc1ccc(C=Cc2cc(O)cc(O)c2)cc1 [resveratrol]	–	–	–	–	–	–	–	inhibition of ADP-stimulated oxygen consumption [1]: inhibitory activity
C(=Cc1ccccc1)c1ccccc1 [stilbene]	–	–	–	–	–	–	–	uncoupling activity ([2]; 100 μM, result in words): inactive
Oc1cc(O)cc(/C=C/c2ccc(O)c(O)c2)c1 [trans-piceatannol]	–	–	–	–	5 ± 1 % uncoupling	–	–	–
Oc1ccc(/C=C/c2cc(O)cc(O)c2)cc1 [trans-resveratrol]	–	–	–	–	2 ± 0 % uncoupling	–	–	–
C(=C\c1ccccc1)/c1ccccc1 [trans-stilbene]	–	–	–	–	−1 ± 1 % uncoupling	–	–	–
